These results are taken from US10457702B2, “Dicaffeoyl spermidine cyclized derivatives and use thereof” (Jinan University, priority 2016, dated 2019).

Each structure is given as a SMILES string.

A short description of assay [1]: Oxygen radical absorbance capacity (ORAC) antioxidant experiment. The following applies: for ORAC value (μmol TE/μmol): relative to Trolox standard, AAPH, fluorescein. The method, then:
The antioxidant activity of the compounds was evaluated by using the oxygen radical absorbance capacity (ORAC) experiment. The detailed experimental procedure is as follows. 0.248 g of AAPH (2,2′-azobisisobutylamidine dihydrochloride) was added to a 50 mL phosphate buffer system to formulate a 18.3 mM AAPH stock solution. 20 μL of phosphate buffer, 20 μL solution of sample to be tested or standard substance Trolox (concentration of 6.25 μM) and 20 μL of fluorescent substance of disodium fluorescein (FL, concentration of 630 nM) were added into the wells of a 96-well plate in order. Then, 140 μL of AAPH (concentration of 18.3 mM) was quickly added to the wells of a 96-well plate, which was immediately placed in a GENios […] microplate reader manufactured by Tecan, Switzerland, the excitation wavelength was set as 485 nm and the emission wavelength was set as 527 nm. The fluorescence intensity was measured every 2 minutes and recorded for a total of 100 min.
The antioxidant capacity of the active substance is calculated as follows: Relative ORAC value=(AUCsample−AUCblank)/(AUCtrolox−AUCblank). Wherein, AUCsample refers to the integral area under the fluorescence decay curve of the test sample, AUCtrolox refers to the integral area under the fluorescence decay curve of the standard substance Trolox, and AUCblank refers to the integral area under the fluorescence decay curve when the test sample or the standard substance Trolox is not added.

For assay [2], the system named is Senile dementia fruit fly (Aβ42, P35*H29.3). The experiment in a line: Learning and memory (olfactory short-term memory, T-Maze performance index) of Senile dementia fruit fly. Format: in vivo. The following applies: for improvement of learning and memory function of Senile dementia fruit fly (in words): 100 μM, compared with untreated disease flies and positive control drug memantine; for PI (100 μM) learning and memory performance index: Senile dementia disease flies (P35*H29.3), drug administered at 100 μM, n = 6. The text has this: (1) Cultivation of Senile Dementia Fruit Fly W^1118 (isoCJI), as a background fruit fly of control group in the experiment, was abbreviated as “2U”. The fruit flies that successfully introduced with the pathogenic Aβ42 protein were (UAS-Aβ42; abbreviated as “H29.3”). This strain of fruit flies was hybridized with the fruit fly expressing the Gal4 promoter in whole brain, and the fruit fly strain carrying elav-GAL4^[…] (P35) and Aβ42 was obtained. (2) Administration of Senile Dementia Fruit Fly Three groups of drug-free control of healthy fruit fly, drug-free control of disease fruit fly, and dose disease fruit fly were set in the experiment. All parents of tested fruit flies were housed and propagated at a constant temperature of 24° C. and a humidity of 42% RH (Relative humidity). On the first day after the emergence of the fruit flies, the fruit flies of control group and disease group, as well as the fruit flies to be administered were anesthetized with carbon dioxide, and the fruit flies of the correct characters were selected into the glass tube containing food. During the dosing period, all test fruit flies were kept in an incubator with a constant temperature of 28° C. and a constant humidity of 42% to ensure the drug taking efficiency of the fruit flies. Each day the fruit flies were administered for 4 hours, and the drug was administered from the second day after the fruit flies were selected until the 8th day. The drugs administered were prepared on the second day after the fruit fly selection, and were administered to the fruit flies on the day of preparation. The drugs were dissolved by 100% DMSO to a concentration of 10 mM. When preparing the working solution, the 10 mM stock solution was diluted to 100 μM with 4% sucrose. In addition, the fruit flies of control group were fed sucrose water containing 1% DMSO. For each Performance Index, two tubes of fruit fly groups are required, each tube containing about 100 fruit flies. Experiments were conducted in a light proof behavior room with constant temperature of 25 ° C., constant humidity of 70%. The method can be found in references ^[1-3]. 1) During the training stage, about 100 flies were loaded into a training tube provided with a copper mesh cross electrode. Two kinds of odors of octanol (OCT) and methylcyclohexanol (MCH) were successively introduced for each 60 s with an intervals for 45 s of fresh air. 60 V pulsed electrical shock stimulation (US, pulse duration 1.5 s, interval 3.5 s) was applied to the fruit flies while introducing the 1st odor. No electrical shock was applied when the second odor (CS-) was introduced. Thereby one training cycle was completed. 2) In the transient memory (learning) ability test, the fruit flies that completed one training cycle were immediately transferred to the selection point of T-Maze, while CS+ and CS- were introduced from the opposite two directions. After two minutes of selection, the fruit flies on both sides were collected separately and counted after anesthesia or sacrifice. […] When performing the activity test, the short-term memory deficit tests for the olfactory sensation of the non-administered healthy flies with the same genetic background (2U*H29.3), non-administered Senile dementia disease flies (P35*[…].3), and test drug administered Senile dementia disease flies were also conducted, and their total learning and memory performance indexes (PIs) was calculated respectively. […]

As for `O=C(O[C@@H]1Cc2c(O)cc(O)cc2O[C@@H]1c1cc(O)c(O)c(O)c1)c1cc(O)c(O)c(O)c1` [EGCG, epigallocatechin gallate, reference compound], the “ORAC value (μmol TE/μmol)” value in assay [1] was determined as 1.48 ± 0.02 μmol TE/μmol.
Consider `O=C1/C=C/c2ccc(O)c(c2)Oc2cc(O[C@@H]3O[C@H](CO)[C@@H](O)[C@H](O[C@@H]4O[C@H](CO)[C@@H](O)[C@H](O)[C@H]4O)[C@H]3O)c(O)cc2CCC(=O)NCCCCNCCCN1` [Formula III], for which the “ORAC value (μmol TE/μmol)” value in assay [1] is reported as 0.96 ± 0.03 μmol TE/μmol. In assay [2], the “improvement of learning and memory function of Senile dementia fruit fly (in words)” value is reported as “superior to the positive control drug”; the “PI (100 μM) learning and memory performance index” value is 45.9 ± 1.9***.
With `O=C1/C=C/c2ccc(O)c(c2)Oc2cc(O[C@@H]3O[C@H](CO)[C@@H](O)[C@H](O)[C@H]3O)c(O)cc2CCC(=O)NCCCCNCCCN1` [Formula II], the “antioxidant activity (in words)” value in assay [1] (ORAC, compared with positive control EGCG) is recorded as “comparable to that of the positive control drug”. In assay [1], the “ORAC value (μmol TE/μmol)” value is listed as 1.48 ± 0.01 μmol TE/μmol. Further, in assay [2], the “improvement of learning and memory function of Senile dementia fruit fly (in words)” value is “significantly improve the learning and memory function”; the “PI (100 μM) learning and memory performance index” value is listed as 37.1 ± 2.2**.
Consider `CC12CC3CC(C)(C1)CC(N)(C3)C2` [Memantine, memantine, reference compound], for which, in assay [2], the “PI (100 μM) learning and memory performance index” value is 44.2 ± 2.1***.
